Legend:
Recombinant p62 protein = Recombinant p62 protein (Homo sapiens, UniProt Q13501); assay: Surface plasmon resonance (SPR) compound binding to p62; conditions: 15° C
Protocol: Recombinant p62 protein was buffer exchanged into Biacore SPR running buffer (Cytiva 100671) using the Slide-A-Lyzer Mini Dialysis system 7K MWCO (Thermo Fisher Scientific, Cat no. 69560). The final protein concentration was determined using the Nanodrop One spectrophotometer (Thermo Fisher Scientific, cat no. ND-ONE-W), with calibration for the dialysis buffer.
The prepared protein was diluted in sodium acetate buffer (NaAc, pH 5.5, Cytiva) to concentrations ranging from approximately 0.25-40 μg/mL. Post-immobilization, the protein required approximately 16 hours of equilibration in running buffer supplemented with 1% DMSO at 15° C. to ensure adequate surface equilibration and protein reorganization.
All SPR experiments were conducted at a constant temperature of 15° C. The SPR chip surface was activated using EDC/NHS for a contact time of 6-10 min at a flow rate of 10 μL/min. This was followed by protein immobilization for 2100 seconds and ethanolamine capping for 420 seconds, both at the same flow rate. Immediately after immobilization, the NH2-REEE peptide was analyzed in Single Cycle Kinetics mode (SCK) to verify surface activity, ensuring it binds the sample with the published affinity (˜20 μM by SPR).
For general compound binding studies, experiments were performed at 15° C. using a running buffer composed of 10 mM HEPES, 150 mM NaCl, 1 mM DTT, 0.05% Tween 20, and 1% DMSO at pH 7.4. The test compound was initially prepared at a 20 mM concentration in DMSO and subsequently titrated in 2-fold dilutions. For each assay, 2 μL of the compound was mixed with 198 μL of the running buffer, and the mixture was thoroughly pipetted approximately 15 times for homogenization.
A series of blank injections (0 μM concentration) were included for double referencing, with at least 8 or 16 per plate depending on the format. Typical injection parameters were 120 seconds for association and 180 seconds for dissociation at a flow rate of […]. A four-point solvent correction was prepared with DMSO concentrations ranging from 2% to 0.5% in the buffer. Post each compound injection, the system's needles were washed with 50% DMSO.
Analysis of the SPR data was conducted using the Cytiva Evaluation software. The binding levels at the late time-point of each interaction were corrected for reference, then normalized to percentage bound values to account for variations in immobilization levels, protein molecular weight, and compound molecular weight.
Compound binding studies were carried out according to experimental procedures above and SPR % occupancy was determined and summarized in Table 7.

p62 puncta = p62 puncta immunocytochemistry imaging in HeLa cells; assay type: cell-based; conditions: 24 hours treatment, relative to vehicle control (DMSO)
Protocol: HeLa cells were seeded in coated 96-well plates (10,000 cells) and allowed to adhere overnight. After 24 hours of treatment with either vehicle (DMSO) or test compounds, the media was discarded, and cells were rinsed with ice-cold 1×PBS before fixation by 4% formaldehyde or paraformaldehyde for 20 min. Cells were then washed with 1×PBS and permeabilized with 0.1% Triton X-100 in PBS for 20 min and blocked with Blocking Buffer in PBS for 1 hour. The cells were incubated thereafter for 1 hour with anti-p62 primary antibody in Blocking Buffer, followed by incubation with secondary antibody for 1 hour. DAPI dye was used to visualize nuclei of fixed cells. The blocking buffer used were 5% Fetal Bovine Serum (FBS, ThermoFIsher Scientific, 10270106) and Li-cor Intercept (PBS) Blocking Buffer (Li-cor, 927-70001). The primary antibody used was mouse anti-p62 primary antibody (Novus Biologicals, H00008878-M01). The secondary antibodies used were goat anti-mouse Alexa Fluor Plus 488 secondary antibody (Invitrogen, GOXMS) and goat anti-mouse Alexa Fluor 488 secondary antibody (Invitrogen, A-11029). The DAPI dyes used were DAPI dye (Invitrogen, 62248) and DAPI dye (Invitrogen, D1306).
For the EVOS M7000 System, cells were imaged on the EVOS M7000 microscope using a 20× air objective (Nikon, N.A 0.45). DAPI and p62 channels were illuminated with LED light cubes using integrated hard-coated filter sets for DAPI (357/447 nm) and GFP (470/525 nm) respectively. Images were analysed for p62 puncta count on the Celeste 6.0 software.
For the Operetta CLS System, cells were imaged on the Operetta CLS using a 63× water objective on the DAPI and Alexa 488 channels. Images were analysed for p62 puncta count on the Harmony 5.1 software.
HeLa cells were treated with compounds for 24 hours to evaluate the effect of these compounds on p62 puncta activity. The resulting changes in levels of p62 puncta were assessed by imaging, either on the EVOS M7000 or Operetta CLS systems as described in experimental procedures. The fold change of p62 puncta levels induced by compound treatment relative to vehicle control (DMSO) was determined and summarized in Table 10.

p62 oligomers = target: T1, p62 oligomers (Homo sapiens, UniProt Q13501); assay: p62 oligomerization assay by Western blot in HeLa cells; assay type: cell-based; conditions: 24 hours treatment, relative to vehicle control (DMSO)
T1 construct: endogenous in cells; host or cells: HeLa
T1 sequence (Q13501 whole entry): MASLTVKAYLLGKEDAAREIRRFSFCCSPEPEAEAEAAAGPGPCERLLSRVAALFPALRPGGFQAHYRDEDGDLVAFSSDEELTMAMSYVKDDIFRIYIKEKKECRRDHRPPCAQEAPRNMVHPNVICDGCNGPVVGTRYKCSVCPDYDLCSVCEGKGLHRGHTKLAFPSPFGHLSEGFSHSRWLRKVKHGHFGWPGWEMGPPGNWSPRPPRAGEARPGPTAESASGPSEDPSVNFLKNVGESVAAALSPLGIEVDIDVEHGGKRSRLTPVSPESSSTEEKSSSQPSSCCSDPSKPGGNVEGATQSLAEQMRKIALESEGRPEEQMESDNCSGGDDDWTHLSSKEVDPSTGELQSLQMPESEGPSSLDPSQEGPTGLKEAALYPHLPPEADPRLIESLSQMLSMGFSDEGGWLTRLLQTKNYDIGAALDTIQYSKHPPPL
Protocol: (§1) HeLa cells were seeded in 6-well plates (700,000 cells) and allowed to adhere overnight. Media was replaced one hour before administering either vehicle (DMSO) or test compounds. After 24 hours of treatment, the media was discarded, and cells were rinsed once with ice-cold 1×PBS before detached from plates with ice-cold RIPA Lysis and Extraction Buffer (Thermo Fisher Scientific) which was supplemented with protease and phosphatase inhibitors. The resulting cell suspensions were transferred to pre-chilled microcentrifuge tubes, incubated on ice for 20 min with intermittent mixing and then centrifuged at 12,000 rpm for 20 min at 4° C. The supernatants were then aspirated slowly and transferred into new tubes kept on ice. The protein concentration in the samples was determined using BCA kit (Thermo Fisher Scientific) as per manufacturer's instructions.
(§2) For the p62 oligomerization and LC3 lipidation assays, cell lysates were prepared using RIPA buffer supplemented with 2% SDS and benzonase (Sigma). The lysates were then combined with 4× Laemmli protein sample buffer (Bio-Rad), heated at 70° C. for 10 min and subjected to a brief centrifugation of 10-15 seconds.
(§3) For p62 oligomerization and LC3 lipidation assays, lysates containing 30 μg of protein and for BRD4 and FKBP12(F36V) degradation assays, lysates containing 20 μg of protein, were loaded slowly into the wells of 4-20% gradient Tris-glycine gels (Bio-Rad). The gels were run at 100V until completion and transferred onto PVDF membranes. Membranes were blocked using 5% milk in TBS-Tween (0.1%) buffer at room temperature for 1 hour. The membranes were incubated with primary antibody in 5% milk-TBST with shaking, overnight at 4° C. The primary antibodies used were: p62 (Novus Biologicals 2C11, H00008878-MO1), LC3A/B (Cell Signalling Technology D3U4C, 12741S), FKBP12 (Abcam ab24373), BRD4 (Cell Signalling Technology E2A7X, 13440S), GAPDH (Cell Signalling Technology D4C6R, 97166S), and β-Actin (Proteintech 66009-1-Ig). Following primary antibody incubation, membranes were washed thrice with TBST 10 min before and after incubation with secondary-HRP conjugated antibody in 5% milk-TBST for 1 hour at room temperature. The secondary antibodies used were: Anti-Mouse IgG HRP Conjugate (Promega W4021B) and Anti-Rabbit IgG HRP Conjugate (Promega W4011). For the p62 oligomerization assay, the total protein levels were assessed using Ponceau staining (Thermo Fisher Scientific) of PVDF membrane as per recommendation by manufacturer's guidelines.
(§4) Imaging was acquired using SuperSignal™ West Pico PLUS Chemiluminescent Substrate (Thermo Fisher Scientific) with iBright Invitrogen FL100 imaging system. Band signal intensity, reflective of protein concentrations, were quantified using Invitrogen™ iBright™ Analysis and Image J software.
HeLa cells were treated with compounds for 24 hours to evaluate the effect of these compounds on p62 oligomerisation activity. The resulting changes in levels of p62 oligomers were assessed by Western blotting, as described in experimental procedures. The fold change of p62 oligomer levels induced by compound treatment relative to vehicle control (DMSO) was determined and summarized in Table 8. Specifically, FIGS. 2A-C show Western blot images and their corresponding quantification showing the levels of high molecular weight (100-200 kDa) p62 oligomers by 24 hours compound treatments at listed concentrations, relative to vehicle control (DMSO) in HeLa cells. Protein loading consistencies was assessed by Ponceau staining (not shown).

LC3 protein = assay: LC3 lipidation (LC3-II/LC3-I) assay by Western blot in HeLa cells; assay type: cell-based; conditions: 24 hours treatment, relative to vehicle control (DMSO)
Protocol: as §1, §2, §3, §4
HeLa cells were treated with compounds for 24 hours to evaluate the effect of these compounds on LC3-II/LC3-I levels, a measure of autophagy activation. The changes in levels of LC3-I, LC3-II and […] (loading control) were assessed by Western blotting, as described in experimental procedures. The fold increase of LC3-II/LC3-I levels induced by compound treatment relative to vehicle control (DMSO) was determined and summarized in Table 9. Specifically, FIGS. 3A-C show Western blot images and their corresponding quantification showing the lipidation levels of LC3 protein (LC3-II/LC3-I) by 24 hours compound treatments at listed concentrations, relative to vehicle control (DMSO) in HeLa cells.

Recombinant p62 protein, sequence (Q13501 whole entry, species assumed): as the sequence (Q13501 whole entry) above

Row | SMILES | receptor occupancy at 100 µM (Recombinant p62 protein) | further results
1 | CC(O)CNCc1cccc2c1ccn2Cc1ccccc1 (stereo not shown) [Compound 3] | 30 to 70% | p62 puncta (fold change of p62 puncta levels) (p62 puncta): + (<2-fold change in p62 puncta levels relative to DMSO control)
2 | CNCCOCc1cccc2c1ccn2Cc1ccccc1 [Compound 5, 2-((1-benzyl-1H-indol-4-yl)methoxy)-N-methylethan-1-amine] | 30 to 70% | p62 puncta (fold change of p62 puncta levels) (p62 puncta): + (<2-fold change in p62 puncta levels relative to DMSO control)
3 | CC(C)NCC(O)COc1cccc2c1ccn2Cc1ccccc1 (stereo not shown) [Compound 6, 1-((1-benzyl-1H-indol-4-yl)oxy)-3-(isopropylamino)propan-2-ol] | 30 to 70% | p62 oligomerization (fold change of p62 oligomer levels) (p62 oligomers): ++ (>2-fold change relative to DMSO control); LC3 lipidation (fold increase of LC3-II/LC3-I levels) (LC3 protein): + (<2-fold change in LC3-II/LC3-I relative to DMSO control)
4 | OC1CC(NCc2cccc3c2ccn3Cc2ccccc2)C1 (stereo not shown) [Compound 7] | < 30% | p62 puncta (fold change of p62 puncta levels) (p62 puncta): + (<2-fold change in p62 puncta levels relative to DMSO control)
5 | OCCNCc1cccc2c1ccn2-c1ccccc1 [Compound 9, 2-(((1-phenyl-1H-indol-4-yl)methyl)amino)ethan-1-ol] | > 70% | p62 oligomerization (fold change of p62 oligomer levels) (p62 oligomers): ++ (>2-fold change relative to DMSO control); LC3 lipidation (fold increase of LC3-II/LC3-I levels) (LC3 protein): + (<2-fold change in LC3-II/LC3-I relative to DMSO control)
6 | OCCNCc1cccc2c1ccn2Cc1ncc[nH]1 [Compound 22] | < 30% | 
7 | OCCNCc1cccc2c1ccn2CC1CCOCC1 [Compound 24] | 30 to 70% | 
8 | OCCNCc1cccc2c1ccn2CC1CCNCC1 [Compound 25, 2-(((1-(piperidin-4-ylmethyl)-1H-indol-4-yl)methyl)amino)ethan-1-ol] | < 30% | 
9 | OCCNCc1cccc2c1ccn2CCc1cccnc1 [Compound 29] | < 30% | 
10 | OCCNCc1c(Cl)ccc2c1ccn2Cc1ccccc1 [Compound 36] | 30 to 70% | 

More lines, main results first:

Row | receptor occupancy at 100 µM (Recombinant p62 protein) | SMILES | further results
11 | 30 to 70% | OCCNCc1ccc2c(ccn2Cc2ccccc2)c1 [Compound 38] | 
12 | < 30% | OCCNCc1cccc2c1CCN2Cc1ccccc1 [Compound 40, 2-(((1-benzylindolin-4-yl)methyl)amino)ethan-1-ol] | 
13 | < 30% | OCCNCc1cccc2c1CN(Cc1ccccc1)C2 [Compound 42, 2-(((2-benzylisoindolin-4-yl)methyl)amino)ethan-1-ol] | 
14 | < 30% | CC(C)NCCN1Cc2cccc(CNCCO)c2C1 [Compound 43] | 
15 | 30 to 70% | O=C(CO)NCc1cccc2c1ccn2Cc1ccc(F)cc1 [Compound 46] | 
16 | < 30% | CC(C)OCCNCc1cccc2c1ccn2Cc1ccccc1 [Compound 47] | 
17 | < 30% | OCCNCc1ccnc2c1ccn2Cc1ccccc1 [Compound 50] | 
18 | < 30% | OCCNCc1cncc2c1ccn2Cc1ccccc1 [Compound 51] | 
19 | < 30% | O=C(CCO)NCc1cccc2c1ccn2Cc1ccccc1 [Compound 52] | 
20 | < 30% | O=C(NCCO)NCc1cccc2c1ccn2Cc1ccccc1 [Compound 53, 1-((1-benzyl-1H-indol-4-yl)methyl)-3-(2-hydroxyethyl)urea] | 
21 | < 30% | OCCNCc1cccc2c1ccn2CC1CCCCN1 (stereo not shown) [Compound 54] | p62 puncta (fold change of p62 puncta levels) (p62 puncta): ++ (>2-fold change in p62 puncta levels relative to DMSO control)
22 | < 30% | CC(C)(C)OC(=O)NCCOCCOCCOCCNCc1cccc2c1ccn2Cc1ccc(F)cc1 [Compound 84, tert-butyl (1-(1-(4-fluorobenzyl)-1H-indol-4-yl)-5,8,11-trioxa-2-azatridecan-13-yl)carbamate] | 
23 | < 30% | CC(=O)N1CCC(COCCNCc2cccc3c2ccn3Cc2ccccc2)CC1 [Compound 85, 1-(4-((2-(((1-benzyl-1H-indol-4-yl)methyl)amino)ethoxy)methyl)piperidin-1-yl)ethan-1-one] | 
